Measured values as given in patent publication US20240180900A1, “COMPOUNDS AND METHODS FOR THE TARGETED DEGRADATION OF ANDROGEN RECEPTOR” (Arvinas Operations, Inc., priority 2022, published 2024).
Where “and” joins values, the source holds several entries; their conditions need not be identical. Equal values may be shown once. Read-outs that look alike come from different tables or passages of the source.

Assays:
[1] = target: T1, AR V716M (Homo sapiens, UniProt P10275, V716M); assay: AR degradation in T-Rex-293 cell line, V716M; assay type: cell-based; details: T-Rex-293, ELISA
T1 construct: expressed in transfected cells; host or cells: T-REx-293
T1 sequence (P10275 whole entry V716M): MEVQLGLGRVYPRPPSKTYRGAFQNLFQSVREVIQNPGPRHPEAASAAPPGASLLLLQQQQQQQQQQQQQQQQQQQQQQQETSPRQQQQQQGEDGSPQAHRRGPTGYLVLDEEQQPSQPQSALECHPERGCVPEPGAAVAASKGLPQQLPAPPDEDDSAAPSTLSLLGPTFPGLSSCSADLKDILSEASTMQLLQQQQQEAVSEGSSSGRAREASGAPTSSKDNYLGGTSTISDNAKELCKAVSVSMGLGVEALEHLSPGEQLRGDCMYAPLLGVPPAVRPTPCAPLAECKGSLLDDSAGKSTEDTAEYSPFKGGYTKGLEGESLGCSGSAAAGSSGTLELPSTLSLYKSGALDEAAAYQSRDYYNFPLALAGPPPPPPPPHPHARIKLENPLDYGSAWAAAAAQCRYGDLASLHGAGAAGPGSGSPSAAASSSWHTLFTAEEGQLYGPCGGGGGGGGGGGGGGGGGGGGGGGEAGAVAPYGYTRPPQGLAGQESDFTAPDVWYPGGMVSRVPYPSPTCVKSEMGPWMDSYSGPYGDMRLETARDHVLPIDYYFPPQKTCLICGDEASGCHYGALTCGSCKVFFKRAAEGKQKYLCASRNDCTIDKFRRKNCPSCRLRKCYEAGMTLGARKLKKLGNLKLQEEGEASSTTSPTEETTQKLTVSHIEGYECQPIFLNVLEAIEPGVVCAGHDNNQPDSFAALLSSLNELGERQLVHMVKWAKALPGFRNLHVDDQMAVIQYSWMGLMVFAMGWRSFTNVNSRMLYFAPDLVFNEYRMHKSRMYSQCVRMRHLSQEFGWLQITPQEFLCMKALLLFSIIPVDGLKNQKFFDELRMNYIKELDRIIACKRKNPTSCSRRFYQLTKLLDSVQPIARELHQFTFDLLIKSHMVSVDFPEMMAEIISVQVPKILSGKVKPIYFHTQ
Description: FIG. 3 is a graph showing Compound A's ability to degrade clinically relevant mutated forms AR.
(§1) To assess the ability of Compound A to degrade variants of the AR, vectors expressing wild-type AR or mutant AR proteins harboring clinically observed mutations in the ligand binding domain (13 with single amino acid changes or 4 with 2 amino acid changes) (Azad A. A., Volik S. V., Wyatt A. W., et al. Androgen receptor gene aberrations in circulating cell-free DNA: biomarkers of therapeutic resistance in castration-resistant prostate cancer. Clin Cancer Res. 2015; 21:2315-2324; Robinson D., Van Allen E. M., Wu Y. M., et al. Integrative clinical genomics of advanced prostate cancer. Cell. 2015; 161:1215-1228; Ledet E. M., Lilly M. B., Sonpavde G., et al. Comprehensive analysis of AR alterations in circulating tumor DNA from patients with advanced prostate cancer. Oncologist.

[2] = test system: mutant AR proteins (ligand binding domain mutations); assay: degradation of clinically relevant AR point mutants in HEK293 or T-REx-293 cells; assay type: cell-based, human; details: stably transfected
Procedure: Plasmids expressing AR WT or the indicated AR mutants were stably transfected into HEK293 cells. Each cell line was treated with indicated concentrations of Compound A for 24 hours. AR levels were determined by AR ELISA without background subtraction. […]
as §1

[3] = test system: VCaP tumor xenograft; assay: VCaP tumor xenograft study in intact (non-castrated) mice; assay type: in vivo, mouse
Description: To mimic higher androgen levels found in an incomplete testosterone suppression environment, intact (non-castrated) mice were employed for a VCaP tumor xenograft study.

[4] = food/PPI effect on single-dose PK in healthy volunteers (phase 1); assay type: in vivo, human; details: for CL/F: read-out: CL/F_Obs, Geometric Mean (Geometric CV %) (converted); for Vd/F: read-out: Vz/F, Geometric Mean (Geometric CV %)
Procedure: The primary endpoints were AUCinf and Cmax. Additional parameters measured included AUClast and Tmax.
This phase 1, open-label study included a crossover, fed/fasted cohort and a fixed-sequence PPI cohort. For the fed/fasted cohort, healthy male volunteers received a single oral dose of Compound A 200 mg in a fasted state during treatment A and in a fed state, following a high-calorie/high-fat meal, during treatment B. Participants were randomized to a dosing sequence of treatments AB or BA. For the PPI cohort, a single oral dose of Compound A 300 mg was administered alone in a fed state during treatment C, and during treatment D, participants received esomeprazole 40 mg for 5 days prior to a single oral dose of Compound A 300 mg on day 5 in a fed state. Participants were assigned to a fixed-dosing sequence of treatments CD. There was a 24-day washout period between Compound A treatments. PK blood samples were collected predose and at selected times up to 312 hours post-Compound A dose. Primary endpoints were area under the plasma concentration-time curve from the time of dosing extrapolated to infinity (AUCinf) and maximum plasma concentration (Cmax) of Compound A. Secondary endpoints included additional PK parameters and safety and tolerability.
The effect of food and a PPI on the PK of Compound A was evaluated in healthy participants. PK results are presented in Tables 2 and 3 and are summarized here.

[5] = Compound A in clinical setting: treatment-related adverse events; assay type: in vivo, human; details: TRAEs, n = 84
[6] = 200 mg, fed (test) vs fasted (reference)
[7] = 300 mg, fed, esomeprazole 40 mg
[8] = male, human, plasma, oral, 40 mg Esomeprazole + 300 mg
[9] = male, human, plasma, oral, 200 mg, Fasted
[10] = male, human, plasma, oral, 200 mg, Fed
[11] = male, human, plasma, oral, 300 mg, 300 mg Alone

With COc1cc(O[C@H]2C(C)(C)[C@H](NC(=O)c3ccc(N4CCC(CN5CCN(c6ccc(C(=O)N[C@H]7CCC(=O)NC7=O)c(F)c6)CC5)CC4)cc3)C2(C)C)ccc1C#N [Compound A, 4-(4-((1-(4-(((1R,3R)-3-(4-cyano-3-methoxyphenoxy)-2,2,4,4-tetramethylcyclobutyl)carbamoyl)phenyl)piperidin-4-yl)methyl)piperazin-1-yl)-N—((S)-2,6-dioxopiperidin-3-yl)-2-fluorobenzamide] the DC50 [1] was 400 pM, the “degradation of all clinically relevant AR point mutants tested vs wild-type AR” value [2] was “comparable to that observed for wild-type AR” and the “tumor growth inhibition (TGI)” value ([3]; 1 mg/kg/day orally QD for 21 days) was 34%. For the same compound, the “tumor growth inhibition (TGI)” value ([3]; 3 mg/kg/day orally QD for 21 days) was 74%, the “tumor growth inhibition (TGI)” value ([3]; 10 mg/kg/day orally QD for 21 days) was 98% and the “delay of median Tmax, fed vs fasted” value ([4]; 200 mg single oral dose) was “≈ 4 hours”. For the same compound, the “AUCinf Geometric LS Mean Ratio (fed/fasted), relative bioavailability” value [4, 6] was 306.34% and 306.3%, the “AUClast Geometric LS Mean Ratio (fed/fasted), relative bioavailability” value [4, 6] was 313.03% and 313.0% and the “Cmax Geometric LS Mean Ratio (fed/fasted), relative bioavailability” value [4, 6] was 394.46% and 394.5%. The “AUCinf Geometric LS Mean Ratio (with esomeprazole/alone)” value ([4]; 300 mg, fed) was 89.2%, the “AUClast Geometric LS Mean Ratio (with esomeprazole/alone)” value ([4]; 300 mg, fed) was 88.1% and the “Cmax Geometric LS Mean Ratio (with esomeprazole/alone)” value ([4]; 300 mg, fed) was 80.16% and 80.2%. The “reduction in AUCinf with esomeprazole vs Compound A alone” value [4, 7] was about 11%, the “reduction in Cmax with esomeprazole vs Compound A alone” value [4, 7] was “≈ 20% and ~20%” and the “effect of esomeprazole on Compound A exposure” value ([4]; 300 mg, moderate-fat fed conditions) was “small effect, but not clinically significant”. For the same compound, the “increase of extent of systemic exposure (AUCinf), fed vs fasted” value ([4]; high fat meal vs fasted, humans) was 3.1 fold and ~3 fold, the AUC(0-inf) ([4]; male, human, plasma, oral, 40 mg Esomeprazole + 300 mg, read-out: AUCinf-Obs, Geometric Mean (Geometric CV %)) was 9720 ng·h/mL and the AUC(0-t) ([4]; male, human, plasma, oral, 40 mg Esomeprazole + 300 mg, read-out: AUClast, Geometric Mean (Geometric CV %)) was 9370 ng·h/mL. For the same compound, the CL/F [4, 8] was 515 mL/min, the Cmax ([4]; male, human, plasma, oral, 40 mg Esomeprazole + 300 mg, read-out: Cmax, Geometric Mean (Geometric CV %)) was 117 ng/mL and the half-life ([4]; male, human, plasma, oral, 40 mg Esomeprazole + 300 mg, read-out: T1/2, Geometric Mean (Geometric CV %) (converted)) was 65.5 h. The Tmax ([4]; male, human, plasma, oral, 40 mg Esomeprazole + 300 mg, read-out: Tmax) was 10 h, the Vd/F [4, 8] was 2920 L and the AUC(0-inf) ([4]; male, human, plasma, oral, 200 mg, 200 mg alone, fasted, read-out: AUCinf, Geometric LS Mean) was 3460 ng·h/mL. It also gave an AUC(0-t) ([4]; male, human, plasma, oral, 200 mg, 200 mg alone, fasted, read-out: AUClast, Geometric LS Mean) of 3300 ng·h/mL, a Cmax ([4]; male, human, plasma, oral, 200 mg, 200 mg alone, fasted, read-out: Cmax, Geometric LS Mean) of 36 ng/mL and an AUC(0-inf) ([4]; male, human, plasma, oral, 200 mg, 200 mg alone, fed, read-out: AUCinf, Geometric LS Mean) of 10600 ng·h/mL. It also gave an AUC(0-t) ([4]; male, human, plasma, oral, 200 mg, 200 mg alone, fed, read-out: AUClast, Geometric LS Mean) of 10300 ng·h/mL, a Cmax ([4]; male, human, plasma, oral, 200 mg, 200 mg alone, fed, read-out: Cmax, Geometric LS Mean) of 142 ng/mL and an AUC(0-inf) ([4]; male, human, plasma, oral, 200 mg, Fasted, read-out: AUCinf-Obs, Geometric Mean (Geometric CV %)) of 3460 ng·h/mL. It also gave an AUC(0-t) ([4]; male, human, plasma, oral, 200 mg, Fasted, read-out: AUClast, Geometric Mean (Geometric CV %)) of 3300 ng·h/mL, a CL/F [4, 9] of 964 mL/min and a Cmax ([4]; male, human, plasma, oral, 200 mg, Fasted, read-out: Cmax, Geometric Mean (Geometric CV %)) of 36.1 ng/mL. The half-life ([4]; male, human, plasma, oral, 200 mg, Fasted, read-out: T1/2, Geometric Mean (Geometric CV %) (converted)) was 65.3 h, the Tmax ([4]; male, human, plasma, oral, 200 mg, Fasted, read-out: Tmax) was 7.75 h and the Vd/F [4, 9] was 5450 L. The AUC(0-inf) ([4]; male, human, plasma, oral, 200 mg, Fed, read-out: AUCinf-Obs, Geometric Mean (Geometric CV %)) was 10600 ng·h/mL, the AUC(0-t) ([4]; male, human, plasma, oral, 200 mg, Fed, read-out: AUClast, Geometric Mean (Geometric CV %)) was 10300 ng·h/mL and the CL/F [4, 10] was 315 mL/min. It also gave a Cmax ([4]; male, human, plasma, oral, 200 mg, Fed, read-out: Cmax, Geometric Mean (Geometric CV %)) of 142 ng/mL, a half-life ([4]; male, human, plasma, oral, 200 mg, Fed, read-out: T1/2, Geometric Mean (Geometric CV %) (converted)) of 58.7 h and a Tmax ([4]; male, human, plasma, oral, 200 mg, Fed, read-out: Tmax) of 12 h. For the same compound, the Vd/F [4, 10] was 1600 L, the AUC(0-inf) ([4]; male, human, plasma, oral, 200 mg, fasted, read-out: AUCinf) was 3460 ng·h/mL and the AUC(0-inf) ([4]; male, human, plasma, oral, 200 mg, fed (high-fat meal), read-out: AUCinf) was 10600 ng·h/mL. The half-life ([4]; male, human, plasma, oral, 200 mg, under both fed and fasted conditions, read-out: mean T1/2) was 60 to 76 h, the Tmax ([4]; male, human, plasma, oral, 300 mg with esomeprazole 40 mg, fed, read-out: median Tmax) was 10 h and the AUC(0-inf) ([4]; male, human, plasma, oral, 300 mg, 300 mg Alone, read-out: AUCinf-Obs, Geometric Mean (Geometric CV %)) was 10900 ng·h/mL. For the same compound, the AUC(0-t) ([4]; male, human, plasma, oral, 300 mg, 300 mg Alone, read-out: AUClast, Geometric Mean (Geometric CV %)) was 10600 ng·h/mL, the CL/F [4, 11] was 459 mL/min and the Cmax ([4]; male, human, plasma, oral, 300 mg, 300 mg Alone, read-out: Cmax, Geometric Mean (Geometric CV %)) was 146 ng/mL. The half-life ([4]; male, human, plasma, oral, 300 mg, 300 mg Alone, read-out: T1/2, Geometric Mean (Geometric CV %) (converted)) was 58.4 h, the Tmax ([4]; male, human, plasma, oral, 300 mg, 300 mg Alone, read-out: Tmax) was 7 h and the Vd/F [4, 11] was 2320 L. For the same compound, the AUC(0-inf) ([4]; male, human, plasma, oral, 300 mg, 300 mg alone, fed, read-out: AUCinf, Geometric LS Mean) was 10900 ng·h/mL, the AUC(0-t) ([4]; male, human, plasma, oral, 300 mg, 300 mg alone, fed, read-out: AUClast, Geometric LS Mean) was 10600 ng·h/mL and the Cmax ([4]; male, human, plasma, oral, 300 mg, 300 mg alone, fed, read-out: Cmax, Geometric LS Mean) was 146 ng/mL. The Tmax ([4]; male, human, plasma, oral, 300 mg, 300 mg alone, fed, read-out: median Tmax) was 7 h, the AUC(0-inf) ([4]; male, human, plasma, oral, 300 mg, 300 mg with esomeprazole, fed, read-out: AUCinf, Geometric LS Mean) was 9720 ng·h/mL and the AUC(0-t) ([4]; male, human, plasma, oral, 300 mg, 300 mg with esomeprazole, fed, read-out: AUClast, Geometric LS Mean) was 9370 ng·h/mL. It also gave a Cmax ([4]; male, human, plasma, oral, 300 mg, 300 mg with esomeprazole, fed, read-out: Cmax, Geometric LS Mean) of 117 ng/mL, a delay of median Tmax with esomeprazole ([4]; male, human, plasma, oral, 300 mg, fed) of 3 h and a Tmax ([4]; male, human, plasma, po, 200 mg, 200 mg single oral dose, fasted, read-out: median Tmax) of 7.75 h. For the same compound, the Tmax ([4]; male, human, plasma, po, 200 mg, 200 mg single oral dose, fed (high-fat meal), read-out: median Tmax) was 12 h, the “Alopecia: Any Grade” value [5] was 8 n and the “Alopecia: Grade 3+” value [5] was 0 (0) n (%). For the same compound, the “Anemia: Any Grade” value [5] was 3 n, the “Anemia: Grade 3+” value [5] was 0 (0) n (%) and the “Any TRAE: Any Grade” value [5] was 55 n. For the same compound, the “Any TRAE: Grade 3+” value [5] was 7 (8) n (%), the “Aspartate Aminotransferase increase: Any Grade” value [5] was 6 n and the “Aspartate Aminotransferase increase: Grade 3+” value [5] was 1 (1) n (%). For the same compound, the “Decreased appetite: Any Grade” value [5] was 9 n, the “Decreased appetite: Grade 3+” value [5] was 0 (0) n (%) and the “Diarrhea: Any Grade” value [5] was 9 n. For the same compound, the “Diarrhea: Grade 3+” value [5] was 1 (1) n (%), the “Fatigue: Any Grade” value [5] was 24 n and the “Fatigue: Grade 3+” value [5] was 2 (2) n (%). The “Nausea: Any Grade” value [5] was 12 n, the “Nausea: Grade 3+” value [5] was 0 (0) n (%) and the “Vomiting: Any Grade” value [5] was 9 n. For the same compound, the “Vomiting: Grade 3+” value [5] was 0 (0) n (%), the “Weight decrease: Any Grade” value [5] was 1 n and the “Weight decrease: Grade 3+” value [5] was 0 (0) n (%).
